Experimental data reported in patent publication US7265135B2 (Ortho-McNeil Pharmaceutical, Inc., priority 2001, dated 2007).

These compounds were tested against T1, human histamine H3 receptor (Homo sapiens, UniProt Q9Y5N1) (assay: [3H]-N-methylhistamine binding assay). Conditions: membranes of histamine H3 receptor-expressing SK-N-MC cells; 0.8 nM [3H]-N-methylhistamine; 45 min at 25° C.; Ki=(IC50)/(1+([L]/(KD)).
T1 construct: One μg supercoiled H3 receptor cDNA was added to the cells and mixed; expressed in transfected cells; membranes prepared from cell pellets
T1 sequence (Q9Y5N1 whole entry): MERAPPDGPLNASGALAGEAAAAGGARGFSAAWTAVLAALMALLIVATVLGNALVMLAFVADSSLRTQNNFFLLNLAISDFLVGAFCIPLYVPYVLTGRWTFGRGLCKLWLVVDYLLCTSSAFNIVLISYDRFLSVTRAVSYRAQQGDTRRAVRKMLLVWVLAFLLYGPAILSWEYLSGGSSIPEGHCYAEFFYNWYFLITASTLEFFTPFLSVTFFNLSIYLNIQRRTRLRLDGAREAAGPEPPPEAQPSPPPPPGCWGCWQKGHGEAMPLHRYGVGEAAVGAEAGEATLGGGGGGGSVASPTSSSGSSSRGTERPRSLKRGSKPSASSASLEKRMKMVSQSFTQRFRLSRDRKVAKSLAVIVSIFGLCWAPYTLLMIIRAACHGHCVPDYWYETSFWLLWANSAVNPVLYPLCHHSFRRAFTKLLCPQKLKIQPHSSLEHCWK
Protocol: The histamine H3 receptor binding effectiveness of compounds of the present invention was determined using the human histamine H3 receptor, Lovenberg et al Mol. Pharmacol. 1999, 1107. Screening using the human receptor is particularly important for the identification of new therapies for the treatment of human disease. Prior binding assays, for example, relied on rat synaptosomes (Garbarg et al J. Pharmacol. Exp. Ther. 1992, 263, 304), rat cortical membranes (West et al Mol. Pharmacol. 1990, 610), and guinea pig brain (Korte et al Biochem. Biophys. Res. Commun. 1990, 978). A recent comparative study comparing human H3 receptor activity with H3 receptors from rodent and primate have shown significant differences in the respective pharmacology of the rodent and primate receptors to the human receptor. (West et al Eur. J. Pharmacol. 1999, 233; Lovenberg et al., J. Pharmacol. Exp. Ther. 2000, 293, 771-778.)
A 10 cm tissue culture dish with a confluent monolayer of SK-N-MC cells was split two days prior to transfection. Using sterile technique the media was removed and the cells were detached from the dish by the addition of trypsin. One fifth of the cells were then placed onto a new 10 cm dish. Cells were grown in a 37° C. incubator with 5% CO2 in Minimal Essential Media Eagle with 10% Fetal Bovine Serum. After two days cells were approximately 80% confluent. These were removed from the dish with trypsin and pelleted in a clinical centrifuge. The pellet was then re-suspended in 400 μL complete media and transferred to an electroporation cuvette with a 0.4 cm gap between the electrodes (Bio-Rad #165-2088). One μg supercoiled H3 receptor cDNA was added to the cells and mixed. The voltage for the electroporation was set at 0.25 kV, the capacitance is set at 960 μF. After electroporation the cells were diluted into 10 mL complete media and plated onto four 10 cm dishes. Because of the variability in the efficiency of electroporation four different concentrations of cells were plated. The ratios used were; 1:20, 1:10, 1:5, with the remainder of the cells being added to the fourth dish. The cells were allowed to recover for 24 h before adding the selection media (complete media with 600 μg/mL G418). After 10 days dishes were analyzed for surviving colonies of cells. Dishes with well isolated colonies were used. Cells from individual colonies were isolated and tested. SK-N-MC cells were used because they give efficient coupling for inhibition of adenylate cyclase. The clones that gave the most robust inhibition of adenylate cyclase in response to histamine were used for further study.
Cell pellets from histamine H3 receptor-expressing SK-N-MC cells were homogenized in 20 mM Tris HCl/0.5 mM EDTA. Supernatants from a 800 g spin were collected, recentrifuged at 30,000 g for 30 minutes. Pellets were re-homogenized in 50 mM Tris/5 mM EDTA (pH 7.4). Membranes were incubated with 0.8 nM [^3H]-N-methylhistamine plus/minus test compounds for 45 min at 25° C. and harvested by rapid filtration over GF/C glass fiber filters (pretreated with 0.3% polyethylenimine) followed by four washes with ice cold buffer. Filters were dried, added to 4 mL scintillation cocktail and then counted on a liquid scintillation counter. Non-specific binding was defined with 10 μM histamine. PKi values were calculated based on a KD of 800 pM and a ligand concentration ([L]) of 800 pM according to the formula: Ki=(IC50)/(1+([L]/(KD))

| Compound | Ki |
| --- | --- |
| CN(C)CCCSc1ncc(C(=NO)c2ccc(Cl)cc2)n1C (mixture of isomers) [(4-Chlorophenyl)-[2-(3-dimethylamino-propylsulfanyl)-3-methyl-3H-imidazol-4-yl]-methanone oxime] | 3.2 nM |
| CC(C)N1CCC(COc2ncc(C(O)c3ccc(C#N)cc3)n2C)CC1 (stereo not shown) [4-{Hydroxy-[2-(1-isopropyl-piperidin-4-ylmethoxy)-3-methyl-3H-imidazol-4-yl]-methyl}-benzonitrile] | 7.6 nM |
| CC(C)N1CCC(COc2ncc(C(=O)c3cc(Cl)cc(Cl)c3)n2C)CC1 [(3,5-Dichlorophenyl)-[2-(1-isopropyl-piperidin-4-ylmethoxy)-3-methyl-3H-imidazol-4-yl]-methanone] | 4 nM |
| CN(C)CCCSc1ncc(C(=O)c2ccc(Br)cc2)n1C [(4-Bromophenyl)-[2-(3-dimethylamino-propylsulfanyl)-3-methyl-3H-imidazol-4-yl]-methanone] | 1.6 nM |
| Cn1c(C(=O)c2ccc(Br)cc2)cnc1SCCCN1CCCCC1 [(4-Bromophenyl)-[3-methyl-2-(3-piperidin-1-yl-propylsulfanyl)-3H-imidazol-4-ylmethanone] | 7.5 nM |
| CN(C)CCSc1ncc(C(=O)c2ccc(Cl)cc2)n1C [(4-Chloro-phenyl)-[2-(2-dimethylamino-ethylsulfanyl)-3-methyl-3H-imidazol-4-yl]methanone] | 98 nM |
| CN(C)CCC[S+]([O-])c1ncc(C(=O)c2ccc(Cl)cc2)n1C (stereo not shown) [(4-Chloro-phenyl)-[2-(3-dimethylamino-propane-1-sulfinyl)-3-methyl-3H-imidazol-4-yl]-methanone] | 315 nM |
| CN1CCC(Sc2ncc(C(=O)c3ccc(Cl)cc3)n2C)CC1 [(4-Chloro-phenyl)-[3-methyl-2-(1-methyl-piperidin-4-ylsulfanyl)-3H-imidazol-4-yl]-methanone] | 7 nM |
| CN1CCCC1CCSc1ncc(C(=O)c2ccc(Cl)cc2)n1C (stereo not shown) [(4-Chloro-phenyl)-{3-methyl-2-[2-(1-methyl-pyrrolidin-2-yl)-ethylsulfanyl]-3H-imidazol-4-yl}-methanone] | 2 nM |
| CC(C)N1CCC(Oc2ncc(C(=O)c3ccc(Cl)cc3)n2C)CC1 [(4-Chlorophenyl)-[2-(1-isopropyl-piperidin-4-yloxy)-3-methyl-3H-imidazol-4-yl]-methanone] | 25 nM |
| CC(C)N1CCC(Sc2ncc(C(=O)c3ccc(Cl)cc3)n2C)CC1 [(4-Chlorophenyl)-[2-(1-isopropyl-piperidin-4-ylsulfanyl)-3-methyl-3H-imidazol-4-yl]-methanone] | 3 nM |
| CN(C)CCCSc1ncc(C(=O)c2ccc(Cl)cc2)n1C [(4-Chlorophenyl)-[2-(3-dimethylamino-propylsulfanyl)-3-methyl-3H-imidazol-4-yl]-methanone] | 2 nM |
| Cn1c(C(=O)c2ccc(Cl)cc2)cnc1SCCCN1CCCCC1 [(4-Chlorophenyl)-[3-methyl-2-(3-piperidin-1-yl-propylsulfanyl)-3H-imidazol-4-yl]-methanone] | 3.1 nM |
| CN(C)CCCSc1ncc(C(=O)c2ccccc2)n1C [[2-(3-Dimethylamino-propylsulfanyl)-3-methyl-3H-imidazol-4-yl]-phenyl-methanone] | 4 nM |
| Cn1c(C(=O)c2cccc3ccccc23)cnc1OCCCN1CCCCC1 [[3-Methyl-2-(3-piperidin-1-yl-propoxy)-3H-imidazol-4-yl]-naphthalen-1-yl-methanone] | 79 nM |
| Cn1c(CN2CCCCC2)cnc1OCCCN1CCCCC1 [[3-Methyl-2-(3-piperidin-1-yl-propoxy)-3H-imidazol-4-yl]-piperidin-1-yl-methane] | 36.4 nM |
| CN(C)CCCSc1ncc(Cc2ccc(Cl)cc2)n1C [{3-[5-(4-Chlorobenzyl)-1-methyl-1H-imidazol-2-ylsulfanyl]-propyl}-dimethyl-amine] | 22 nM |

More lines, now with the values ahead:

| Ki | Compound |
| --- | --- |
| 1.3 nM | CC(C)N1CCC(COc2ncc(C(=O)c3ccccc3Cl)n2C)CC1 [(2-Chlorophenyl)-[2-(1-isopropyl-piperidin-4-ylmethoxy)-3-methyl-3H-imidazol-4-yl]-methanone] |
| 2.8 nM | CC(C)N1CCC(COc2ncc(C(=O)c3cccc(Cl)c3)n2C)CC1 [(3-Chlorophenyl)-[2-(1-isopropyl-piperidin-4-ylmethoxy)-3-methyl-3H-imidazol-4-yl]-methanone] |
| 6.6 nM | CCN1CCC(COc2ncc(C(=O)c3ccc(Br)cc3)n2C)CC1 [(4-Bromophenyl)-[2-(1-ethyl-piperidin-4-ylmethoxy)-3-methyl-3H-imidazol-4-yl]-methanone] |
| 5.3 nM | CC(C)N1CCC(COc2ncc(C(=O)c3ccc(Br)cc3)n2C)CC1 [(4-Bromophenyl)-[2-(1-isopropyl-piperidin-4-ylmethoxy)-3-methyl-3H-imidazol-4-yl]-methanone] |
| 9 nM | CCC(C)N1CCC(COc2ncc(C(=O)c3ccc(Br)cc3)n2C)CC1 (stereo not shown) [(4-Bromophenyl)-[2-(1-sec-butyl-piperidin-4-ylmethoxy)-3-methyl-3H-imidazol-4-yl]-methanone] |
| 3.7 nM | CC(C)N1CCC(COc2ncc(C(=O)c3ccc(Cl)cc3)n2C)CC1 [(4-Chlorophenyl)-[2-(1-isopropylpiperidin-4-ylmethoxy)-3-methyl-3H-imidazol-4-yl]-methanone] |
| 2.5 nM | CC(C)N1CCC(COc2ncc(C(=O)c3ccc(F)cc3)n2C)CC1 [(4-Fluorophenyl)-[2-(1-isopropyl-piperidin-4-ylmethoxy)-3-methyl-3H-imidazol-4-yl]-methanone] |
| 4.6 nM | CC(C)N1CCC(COc2ncc(C(=O)c3ccc([N+](=O)[O-])cc3)n2C)CC1 [[2-(1-Isopropyl-piperidin-4-ylmethoxy)-3-methyl-3H-imidazol-4-yl]-(4-nitro-phenyl)-methanone] |
| 4.1 nM | CC(C)N1CCC(COc2ncc(C(=O)c3ccc(C(F)(F)F)cc3)n2C)CC1 [[2-(1-Isopropyl-piperidin-4-ylmethoxy)-3-methyl-3H-imidazol-4-yl]-(4-trifluoromethyl-phenyl)-methanone] |

Same assay, conditions: value printed in text of Example XVI Step B, no unit at the place

| Compound | Ki |
| --- | --- |
| Cn1c(C(=O)c2ccc(Cl)cc2)cnc1S(=O)(=O)CCC[N+](C)(C)[O-] | 10000 nM |
| CN(C)CCCS(=O)(=O)c1ncc(C(=O)c2ccc(Cl)cc2)n1C [(4-Chlorophenyl)-[2-(3-dimethylamino-propane-1-sulfonyl)-3-methyl-3H-imidazol-4-yl]-methanone] | 10000 nM |
